Data: ChEMBL document CHEMBL5724558, “Image-based profiling of drug vulnerabilities in CRC organoids” (2024)
Values joined by “and” are separate entries in the source; they are usually repeats but may differ in a detail not shown here. Identical values can stand only once.

What was measured:
Format in all cases: functional, Homo sapiens
Parameters in all cases: dose or concentration left out as unconfirmed
Colon cancer organoid [1] = experiment: Image-based profiling of donated chemical probes and chemogenomic kinase set in O21 CRC organoid. Image analysis is performed on the sum area metric, and the data were normalized to the DMSO control. After imaging the organoid viability is measured using the OneGloEX Luciferase Assay System. The normalized viability data and sum area are reported.
Colon cancer organoid [2] = experiment: Image-based profiling of donated chemical probes and chemogenomic kinase set in O06 CRC organoid. Image analysis is performed on the sum area metric, and the data were normalized to the DMSO control. After imaging the organoid viability is measured using the OneGloEX Luciferase Assay System. The normalized viability data and sum area are reported.
Colon cancer organoid [3] = experiment: Image-based profiling of donated chemical probes and chemogenomic kinase set in O09 CRC organoid. Image analysis is performed on the sum area metric, and the data were normalized to the DMSO control. After imaging the organoid viability is measured using the OneGloEX Luciferase Assay System. The normalized viability data and sum area are reported.

Compound	Cell Viability (Colon cancer organoid [1]; Replication number 1)	Cell Viability (Colon cancer organoid [1]; Replication number 2)	Cell Viability (Colon cancer organoid [2]; Replication number 1)	Cell Viability (Colon cancer organoid [2]; Replication number 2)	Cell Viability (Colon cancer organoid [3]; Replication number 1)	Cell Viability (Colon cancer organoid [3]; Replication number 2)
COc1ccc2c(c1)O[C@@H](c1ccc(OC)c(OC)c1)C[C@H]2NC(=O)C1(c2ccc3c(c2)OC(F)(F)O3)CC1 [A-1596586]	105.739% and 116.224%	98.6022% and 86.1659%	114.211% and 123.158%	130.418% and 120.375%	77.2703% and 96.7863%	76.2669% and 106.86%
Cc1c(NC(=O)COc2ccc(Cl)cc2C(=O)c2cc(F)cc(C(F)(F)F)c2)ccc(C(=O)O)c1F [BI 2540]	96.7046% and 115.044%	105.62% and 95.2087%	58.8741% and 96.3504%	87.0416% and 104.656%	121.956% and 104.432%	133.179% and 113.341%
CC(=O)NCC(=O)N1[C@@H]2CC[C@H]1c1ccc(Nc3ncc(C(F)(F)F)c(NC4CCC4)n3)cc12 [PF-03814735]	48.6382% and 56.6718%	62.4502% and 65.7393%	–	–	–	33.7645% and 14.7244%
CN(C)C(=O)Cn1cc(-c2ccc(-c3cncc4ccccc34)cc2)cn1	132.258% and 129.895%	113.21% and 111.119%	73.9778% and 127.973%	75.2678% and 99.5373%	314.332% and 120.679%	170.131% and 105.821%
O=C(O)[C@@H]1[C@@H](Cn2nnc3ccccc3c2=O)CC[C@H]1C(=O)c1ccc(OCCC2CCOCC2)cc1 [BAY-694]	110.342% and 94.3079%	96.7199% and 85.7143%	110.156% and 94.3794%	134.213% and 84.5721%	120.527% and 70.2416%	178.043% and 104.564%
CN1C(=O)c2sccc2N(C)c2nc(Nc3ccc(S(N)(=O)=O)cc3)ncc21	57.1917% and 77.4913%	65.5582% and 80.0288%	15.9976% and 28.488%	18.284% and 43.3933%	28.4515% and 23.8118%	41.5113% and 34.0138%
N#CC1(c2ccccn2)CCN(Cc2cc(C(=O)O)c(=O)n3ccccc23)CC1 [MSD-M1PAM]	89.7237% and 93.8523%	106.363% and 84.1264%	–	–	40.5981% and 75.2157%	57.8261% and 79.5004%
CC[C@@H]1C(=O)N(C)c2cnc(Nc3ccc(C(=O)NC4CCN(C)CC4)cc3OC)nc2N1C1CCCC1 [BI-2536]	25.994% and 61.8815%	31.9179% and 66.7866%	–	–	16.4106% and 42.6367%	20.1367% and 38.0631%
COc1cc2ncn(-c3cc(OCc4ccccc4C(F)(F)F)c(C(N)=O)s3)c2cc1OC [GW843682X]	–	21.0036% and 58.1504%	–	–	19.8463% and 25.1831%	19.142% and 23.8097%
COc1cc(Nc2ccnc3ccc(Br)cc23)cc(OC)c1OC	–	–	–	5.197% and 15.2001%	33.1055% and 56.4229%	29.2651% and 46.0292%
COc1c(OCCCN2CCOCC2)ccc2c1N=C(NC(=O)c1cnc(N)nc1)N1CCN=C21 [COPANLISIB]	–	–	2.47% and 7.411%	1.939% and 5.676%	12.735% and 9.949%	17.4919% and 14.9013%
CCN1CCN(c2ccc(Nc3cc(N(C)C(=O)Nc4c(Cl)c(OC)cc(OC)c4Cl)ncn3)cc2)CC1 [INFIGRATINIB]	70.5365% and 84.7387%	76.3419% and 87.5135%	–	–	23.1721% and 22.7147%	19.8415% and 27.805%
Cn1cc(-c2[nH]c3cc(NC(=O)[C@H](N)C4CCCCC4)cc4c3c2C=NNC4=O)cn1	–	–	9.563% and 27.3752%	–	70.4366% and 51.3636%	57.165% and 41.3025%
C[C@@H](Oc1cc(-n2cnc3ccc(CN4CCN(C)CC4)cc32)sc1C(N)=O)c1ccccc1C(F)(F)F [GSK-461364]	31.4353% and 81.9512%	–	–	–	31.4361% and 40.8914%	27.3036% and 34.2838%
C=CC(=O)N1CCC([C@@H]2CCNc3c(C(N)=O)c(-c4ccc(Oc5ccccc5)cc4)nn32)CC1 [ZANUBRUTINIB]	87.382% and 84.1812%	88.1261% and 101.331%	–	–	34.0987% and 32.6632%	34.2694% and 25.3214%
CCCCN(CCCC)C(=O)CN1C[C@@H](c2cc(OC)c3c(c2)OCO3)[C@H](C(=O)O)[C@H]1CC(C)(C)CCC.Cl	63.1584% and 74.5149%	47.1745% and 81.1225%	–	–	42.4098% and 26.0419%	31.2719% and 16.5316%
CN1CCN(Cc2ccc(Nc3ncc(Cl)c(Nc4ccccc4S(=O)(=O)N(C)C)n3)cc2)CC1 [DUBERMATINIB]	–	–	1.098% and 2.141%	1% and 3.825%	4.849% and 7.106%	5.761% and 10.5011%
COc1cc(Nc2ncc3c(n2)-c2ccc(Cl)cc2C(c2c(F)cccc2OC)=NC3)ccc1C(=O)O [ALISERTIB]	99.741% and 113.91%	76.2077% and 81.6074%	–	–	29.1632% and 19.7233%	34.5212% and 21.703%
COc1ccc(Oc2cc(NCCC(F)(F)F)c3ncc(-c4ccc(C(=O)NC5CC5)c(C)c4)n3n2)c(F)c1F [BAY-1217389]	50.4052% and 66.3415%	55.0801% and 82.9075%	–	–	16.1792% and 31.9152%	23.535% and 27.535%
Cn1cc(CNCC2CCN(c3ncc(C(=O)NO)cn3)CC2)c2ccccc21 [QUISINOSTAT]	–	–	–	–	11.6805% and 13.0062%	13.8403% and 11.4602%
CCCCNc1ncc(-c2ccc(CN3CCOCC3)cn2)c(N[C@H]2CC[C@H](O)CC2)n1	74.2042% and 87.3045%	78.7125% and 74.949%	–	–	13.1667% and 26.0723%	15.6613% and 21.4116%
CC(C)[C@H](C(=O)Nc1ccc(C(=O)NO)cc1)c1ccccc1 [AR-42]	145.989% and 67.015%	137.871% and 83.2339%	–	8.903% and 23.7546%	–	–
CCN(CCO)CCCOc1ccc2c(Nc3cc(CC(=O)Nc4cccc(F)c4)[nH]n3)ncnc2c1 [DEFOSBARASERTIB]	70.1574% and 72.5399%	94.5203% and 86.7079%	–	–	28.5576% and 26.4792%	25.188% and 21.7278%
Cc1cc(C)cc(C(=O)NOCCCCCC(=O)NO)c1	190.206% and 106.401%	186.718% and 91.8258%	14.9423% and 44.698%	14.9026% and 40.6267%	–	–
CN(C)CC#Cc1ccc(OCCCc2sc(N3CCc4cccc(C(=O)Nc5nc6ccccc6s5)c4C3)nc2C(=O)O)c(F)c1 [A-1155463]	47.3935% and 102.037%	50.6709% and 99.4222%	0.4141% and 9.206%	0.1987% and 7.04%	–	–
CCS(=O)(=O)Nc1ccc(Oc2ccc(F)cc2F)c(-c2cn(C)c(=O)c3[nH]ccc23)c1 [MIVEBRESIB]	39.7622% and 88.1777%	36.307% and 74.642%	–	–	15.7549% and 20.0077%	18.5163% and 23.3766%
CCc1cccc(CC)c1NC(=O)c1nn(C)c2c1CCc1cnc(Nc3ccc(C(=O)NC4CCN(C)CC4)cc3OC(F)(F)F)nc1-2	41.8512% and 75.8188%	49.725% and 74.2713%	–	–	78.2687% and 77.2947%	115.279% and 90.9735%
CCn1cc(-c2ccnc3[nH]c(-c4cccc(CN(C)C)c4)cc23)c(-c2ccc(NC(=O)N(C)C)cc2)n1 [GSK-1070916]	76.6328% and 71.3589%	81.5265% and 81.1803%	–	–	22.2316% and 23.9614%	25.9157% and 31.5843%
